Measurements as given in the supplement of paper PMC10307832.

Columns and labels:
Test in all cases: relative viability (nuclei count vs DMSO), 5 days (fraction); higher = more cells survive
[1] = compound: CC1=C(C(=NN1)C)CC2=C(C3=C(S2)N(C(=O)N(C3=O)C)CC(C)C)C(=O)N4C[C@@H](CO4)O + O=C(CCCCCCC(=O)Nc1ccccc1)NO [Vorinostat] (partner 1 µM)
How it was run: (§1)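 Five library-drug doses in √10 steps were combined with a fixed anchor-drug dose, or a single drug was given alone, by pin tool to lung cancer cell lines in 1536-well plates the day after seeding. Nuclei were stained and counted after 5 days. Relative viability is the nuclei count in treated wells over that in vehicle wells, taken as the median of duplicate plates.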

IDH-C35 + Linsitinib = compound: Cc1ccccc1C(C(=O)NC1CCCCC1)N(C(=O)Cn1ccnc1C)c1cccc(F)c1 [IDH-C35] + C[C@]1(O)C[C@@H](c2nc(-c3ccc4ccc(-c5ccccc5)nc4c3)c3c(N)nccn32)C1 [Linsitinib] (partner 1 µM)
How it was run: as §1

[2] = compound: CC1=C(C(=NN1)C)CC2=C(C3=C(S2)N(C(=O)N(C3=O)C)CC(C)C)C(=O)N4C[C@@H](CO4)O + COc1cccc2cc(-c3nc([C@H]4CC[C@H](C(=O)O)CC4)n4ncnc(N)c34)[nH]c12 [OSI-027] (partner 0.5 µM)
How it was run: as §1

IDH-C35 + Navitoclax = compound: Cc1ccccc1C(C(=O)NC1CCCCC1)N(C(=O)Cn1ccnc1C)c1cccc(F)c1 [IDH-C35] + CC1(C)CCC(c2ccc(Cl)cc2)=C(CN2CCN(c3ccc(C(=O)NS(=O)(=O)c4ccc(N[C@H](CCN5CCOCC5)CSc5ccccc5)c(S(=O)(=O)C(F)(F)F)c4)cc3)CC2)C1 [Navitoclax] (partner 0.5 µM)
How it was run: as §1

Row | Cell Line | relative viability ([1]; first compound 0.0025 µM) | relative viability ([1]; first compound 0.007906 µM) | relative viability ([1]; first compound 0.025 µM) | relative viability ([1]; first compound 0.07906 µM) | relative viability ([1]; first compound 0.25 µM) | relative viability (IDH-C35 + Linsitinib; first compound 0.08 µM) | relative viability (IDH-C35 + Linsitinib; first compound 0.253 µM) | relative viability (IDH-C35 + Linsitinib; first compound 0.8 µM) | relative viability (IDH-C35 + Linsitinib; first compound 2.53 µM) | relative viability (IDH-C35 + Linsitinib; first compound 8 µM) | relative viability ([2]; first compound 0.0025 µM) | relative viability ([2]; first compound 0.007906 µM) | relative viability ([2]; first compound 0.025 µM) | relative viability ([2]; first compound 0.07906 µM) | relative viability ([2]; first compound 0.25 µM) | relative viability (IDH-C35 + Navitoclax; first compound 0.08 µM) | relative viability (IDH-C35 + Navitoclax; first compound 0.253 µM) | relative viability (IDH-C35 + Navitoclax; first compound 0.8 µM) | relative viability (IDH-C35 + Navitoclax; first compound 2.53 µM) | relative viability (IDH-C35 + Navitoclax; first compound 8 µM)
1 | 201T | 0.979 | 1.02 | 0.951 | 0.952 | 0.973 | 1.03 | 1.06 | 1.01 | 0.992 | 0.955 | 0.843 | 0.79 | 0.72 | 0.642 | 0.71 | 1.18 | 1.19 | 1.19 | 1.17 | 1.19
2 | A549 |  |  |  |  |  | 0.624 | 0.55 | 0.504 | 0.502 | 0.585 |  |  |  |  |  | 1.19 | 1.16 | 1.17 | 1.22 | 1.15
3 | A-427 | 0.899 | 0.895 | 0.865 | 0.826 | 0.929 | 1.13 | 1.17 | 1.07 | 1.1 | 1.18 | 0.444 | 0.569 | 0.425 | 0.549 | 0.477 | 0.975 | 0.975 | 0.904 | 0.949 | 0.952
4 | ABC-1 | 1.08 | 1.27 |  | 0.904 | 0.864 | 0.898 | 0.856 | 0.913 | 0.767 | 0.746 | 0.55 | 0.459 | 0.583 | 0.517 | 0.52 |  |  |  |  | 
5 | BEN | 0.553 | 0.493 | 0.593 | 0.527 | 0.536 | 0.831 | 0.899 | 0.813 | 0.906 | 0.99 | 0.31 | 0.293 | 0.357 | 0.317 | 0.292 | 0.0634 | 0.062 | 0.0706 | 0.0643 | 0.0666
6 | CAL-12T | 0.956 | 0.962 | 0.827 | 0.801 | 0.772 | 0.841 | 0.826 | 0.779 | 0.733 | 0.826 | 0.746 | 0.928 | 0.538 | 0.661 | 0.806 | 1.32 | 1.19 | 1.06 | 1.36 | 1.09
7 | COR-L23 | 0.499 | 0.378 | 0.37 | 0.422 | 0.484 | 0.828 | 0.896 | 0.913 | 0.889 | 0.886 | 0.876 | 0.761 | 0.68 | 0.678 | 0.793 | 1.17 | 0.907 | 0.977 | 0.979 | 1.05
8 | COR-L 105 | 0.89 | 0.918 | 0.374 | 0.86 | 0.744 | 1.01 | 1.24 | 0.854 | 1.01 | 0.836 | 0.741 | 0.694 | 0.663 | 0.838 | 0.679 | 1.01 | 1.04 | 0.64 | 0.899 | 0.569
9 | Calu-6 |  |  |  |  |  | 0.993 | 0.928 | 0.961 | 0.932 | 0.88 |  |  |  |  |  | 0.838 | 0.765 | 0.997 | 0.968 | 0.78
10 | ChaGo-K-1 | 0.73 | 0.811 | 0.755 | 0.725 | 0.787 |  |  |  |  |  | 0.613 | 0.592 | 0.602 | 0.555 | 0.563 | 0.62 | 0.966 | 1.09 | 0.73 | 1.17
11 | EBC-1 |  |  |  |  |  | 1.04 | 0.949 | 1.02 | 0.867 | 0.852 |  |  |  |  |  | 0.364 | 0.503 | 0.52 | 0.359 | 0.203
12 | EKVX | 0.863 | 0.756 | 0.806 | 0.604 | 0.416 | 1.05 | 1.09 | 0.957 | 0.988 | 1.01 | 0.677 | 0.712 | 0.666 | 0.716 | 0.592 | 1.17 | 0.911 | 0.899 | 1.01 | 0.897
13 | EMC-BAC-2 | 0.487 | 0.513 | 0.386 | 0.565 | 0.538 | 0.797 | 0.799 | 0.798 | 0.777 | 0.812 | 0.416 | 0.403 | 0.394 | 0.43 | 0.416 | 1.13 | 1.12 | 1.15 | 1.12 | 1.14
14 | EPLC-272H | 0.454 | 0.447 | 0.61 | 0.438 | 0.351 | 1.12 | 1.31 | 1.08 |  | 1.25 | 0.275 | 0.225 | 0.312 | 0.314 | 0.308 | 1.27 | 1.13 | 1.13 |  | 1.07
15 | H3255 | 0.969 | 0.716 | 0.821 | 0.844 | 0.854 | 0.981 | 0.915 | 1.01 | 0.877 | 0.881 | 0.609 | 0.565 | 0.62 | 0.604 | 0.602 | 0.577 | 0.543 | 0.495 | 0.606 | 0.636
16 | HARA | 0.511 | 0.657 | 0.653 | 0.516 | 0.509 | 0.993 | 0.933 | 1.04 | 0.988 | 0.907 | 0.548 | 0.565 | 0.513 | 0.506 | 0.489 | 1.08 | 1.14 | 1.14 | 1.12 | 1.14
17 | HCC-15 | 1.04 | 0.829 | 0.839 | 0.875 | 0.81 | 0.866 | 0.828 | 0.788 | 0.835 | 0.764 | 0.707 | 0.705 | 0.691 | 0.737 | 0.784 | 0.69 | 0.692 | 0.708 | 0.632 | 0.606
18 | HCC-44 | 1.08 | 1.12 | 1.03 | 1.05 | 1.18 | 0.656 | 0.628 | 0.647 | 0.876 | 0.69 | 0.676 | 0.376 | 0.413 | 0.516 | 0.747 | 0.927 | 1.02 | 1.02 | 0.953 | 0.952
